Test [1] relates to nodose ganglion (NG) neurons. Briefly: Survival of cultured nodose ganglion neurons. Type of test: cell-based, rat. Particulars: FIG. 7D; for survival of NG neurons: 50 ng/ml, 3 days in culture; for survival promotion of NG neurons compared with BDNF: GDNF family ligands 50 ng/ml, BDNF 100 ng/ml. As to the method:
(§1) Each GDNF ligand family member consisted of the human mature amino acid sequence and was produced by standard recombinant DNA methods. Recombinant GDNF, neurturin and persephin were obtained from Genentech while recombinant artemin was produced as described in Example 3.
(§2) The cultures were performed using standard methods described elsewhere (Kotzbauer et al., Neuron 12:763-773, 1994; Kotzbauer et al., Nature 384:467-470, 1996; Milbrandt et al., Neuron 20:245-253, 1998). In brief, for SCG neurons, after dissection and dissociation, neurons were plated on collagen-coated 24-well tissue culture plates and maintained in NGF-containing medium (AM50) for 5 days, after which they were either kept in AM50 or switched to medium containing neutralizing anti-NGF antibodies plus GDNF, neurturin, persephin, artemin, (50 ng/ml where not noted otherwise), or no growth factors. Cultures were maintained for 3 days, after which they were fixed in 4% paraformaldehyde and stained with toluidine blue, and surviving neurons were counted. For nodose ganglion and dorsal root ganglion neuron cultures, dissociated neurons were plated directly into NGF (for dorsal root ganglia), or BDNF (for nodose ganglia, 100 ng/ml) or one of the GDNF ligands in serum-containing medium (AM50 with anti-NGF antibodies), and cells surviving after 3 days in culture were counted as above. Trigeminal ganglia were dissected, dissociated, and plated directly into medium containing NGF or the indicated GDNF ligands, and the number of surviving cells was assessed after 3 days in vitro. For all culture systems, 2-3 independent experiments were performed.

Test [2] has as its system SH-SY5Y neuroblastoma cell line. Briefly: Differentiation of SH-SY5Y neuroblastoma cells. Type of test: cell-based. The following applies: 50 ng/ml, three days after factor addition, FIG. 8C. As to the method: In one experiment, cells from the SH-SY5Y neuroblastoma cell line were plated at 2×10^5 cells/ml/well in 12-well tissue culture plates. After one day in culture cells were either left untreated (Cn) or stimulated with 50 ng/ml artemin (ART) or 10 μM retinoic acid (RA), a known inducer of differentiation of SH-SYSY cells. Three days after factor addition, differentiation was assessed and cells were photographed.

In test [3] the test system is NLF cells transformed with GFRα2. Briefly: Ga14-Elk/Ga14-Luc reporter in NLF neuroblastoma cells transformed with GFRα2. Format: cell-based. Particulars: factor for 24 hours, low-serum medium, FIG. 10B. The method, then:
(§3) Thus, to directly test which receptor combinations can form functional receptors for artemin, expression plasmids for the individual GFRA coreceptors together with the Ga14-Elk/Ga14-Luc reporter system were transiently transformed into fibroblasts that stably express RET. […]
(§4) NLF neuroblastoma cells, which naturally express GFRα2/RET (Tansey et al., submitted), or the RET-3T3 cells were plated at 85,000 cells/well in 12-well plates, and cotransfected with the reporter plasmids Ga14-Luc and CMV-Ga14-Elk (250 ng/well and 50 ng/well, respectively), CMV-lacZ (50 ng/well) for transfection normalization, one of the CMV-GFRA expression plasmids (500 ng/well), and pBluescript (650 ng/well) as carrier for a total of 1.5 μg DNA/well using the Superfect reagent (Qiagen) according to the manufacturer's instructions. […] Measurement of luciferase and β-galactosidase activity was measured using a luminometer and performed as described (Svaren et al., EMBO J 17:6010-6019, 1998). The average luciferase activity of duplicate samples was normalized to β-galactosidase activity of the cotransformed lacZ reporter, and fold activation was calculated by dividing the normalized activity in factor-treated cells by that in the no treatment control.

Test [4] relates to NBL-S neuroblastoma cell line. Briefly: BrdU cell proliferation assay in NBL-S neuroblastoma cells. Format: cell-based. Particulars: 50 ng/mL, 30 hrs after factor addition, FIG. 8D. As to the method: In another experiment, the ability of artemin to induce proliferation of the NBL-S neuroblastoma cell line was examined. NBL-S cells were plated at 5×10^4 cells/well on 48-well plates in standard medium, either without treatment or in the presence of 50 ng/mL of GDNF, artemin, or persephin. Actively dividing cells undergoing DNA synthesis 30 hrs after factor addition were detected using the BrdU (colorimetric) cell proliferation assay kit according to the manufacturer's instructions (Boehringer-Mannheim) and the data are shown in FIG. 8D.

For test [5], the system named is superior cervical ganglion (SCG) neurons. As to the kind of experiment: Survival of cultured superior cervical ganglion neurons after NGF withdrawal. Format: cell-based, rat. Particulars: 50 ng/ml, FIG. 7E. As to the method:
as §1
as §2, with “In brief, for SCG neurons, after dissection and dissociation, neurons were plated on collagen-coated 24-well tissue culture plates and maintained in NGF-containing medium (AM50) for 5 days, after which they were either kept in AM50 or switched to medium containing neutralizing anti-NGF antibodies plus GDNF, neurturin, persephin, artemin, (50 ng/ml where not noted otherwise), or no growth factors.” left out, “For all culture systems, 2-3 independent experiments were performed.” left out

The next test deals with T1, GFRα2/RET (Homo sapiens, UniProt O00451+P07949).
T1 construct: expressed in transfected cells; host or cells: MG87 fibroblasts stably expressing human RET (RET-3T3), transiently transfected with the CMV-GFRα2 plasmid
T1 sequence (O00451 22-444 limits assumed): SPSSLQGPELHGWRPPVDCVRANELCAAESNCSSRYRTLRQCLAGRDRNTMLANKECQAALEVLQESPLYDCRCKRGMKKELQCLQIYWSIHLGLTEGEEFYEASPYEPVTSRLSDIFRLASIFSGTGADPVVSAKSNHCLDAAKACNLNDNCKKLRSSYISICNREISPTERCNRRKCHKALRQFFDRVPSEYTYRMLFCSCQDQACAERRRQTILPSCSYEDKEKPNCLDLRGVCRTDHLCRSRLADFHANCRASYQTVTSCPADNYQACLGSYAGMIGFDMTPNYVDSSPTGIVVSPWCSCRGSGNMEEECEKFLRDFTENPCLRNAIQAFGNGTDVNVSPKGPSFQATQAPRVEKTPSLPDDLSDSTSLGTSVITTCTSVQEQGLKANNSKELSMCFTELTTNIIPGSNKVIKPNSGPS
T1 sequence (P07949 29-1114): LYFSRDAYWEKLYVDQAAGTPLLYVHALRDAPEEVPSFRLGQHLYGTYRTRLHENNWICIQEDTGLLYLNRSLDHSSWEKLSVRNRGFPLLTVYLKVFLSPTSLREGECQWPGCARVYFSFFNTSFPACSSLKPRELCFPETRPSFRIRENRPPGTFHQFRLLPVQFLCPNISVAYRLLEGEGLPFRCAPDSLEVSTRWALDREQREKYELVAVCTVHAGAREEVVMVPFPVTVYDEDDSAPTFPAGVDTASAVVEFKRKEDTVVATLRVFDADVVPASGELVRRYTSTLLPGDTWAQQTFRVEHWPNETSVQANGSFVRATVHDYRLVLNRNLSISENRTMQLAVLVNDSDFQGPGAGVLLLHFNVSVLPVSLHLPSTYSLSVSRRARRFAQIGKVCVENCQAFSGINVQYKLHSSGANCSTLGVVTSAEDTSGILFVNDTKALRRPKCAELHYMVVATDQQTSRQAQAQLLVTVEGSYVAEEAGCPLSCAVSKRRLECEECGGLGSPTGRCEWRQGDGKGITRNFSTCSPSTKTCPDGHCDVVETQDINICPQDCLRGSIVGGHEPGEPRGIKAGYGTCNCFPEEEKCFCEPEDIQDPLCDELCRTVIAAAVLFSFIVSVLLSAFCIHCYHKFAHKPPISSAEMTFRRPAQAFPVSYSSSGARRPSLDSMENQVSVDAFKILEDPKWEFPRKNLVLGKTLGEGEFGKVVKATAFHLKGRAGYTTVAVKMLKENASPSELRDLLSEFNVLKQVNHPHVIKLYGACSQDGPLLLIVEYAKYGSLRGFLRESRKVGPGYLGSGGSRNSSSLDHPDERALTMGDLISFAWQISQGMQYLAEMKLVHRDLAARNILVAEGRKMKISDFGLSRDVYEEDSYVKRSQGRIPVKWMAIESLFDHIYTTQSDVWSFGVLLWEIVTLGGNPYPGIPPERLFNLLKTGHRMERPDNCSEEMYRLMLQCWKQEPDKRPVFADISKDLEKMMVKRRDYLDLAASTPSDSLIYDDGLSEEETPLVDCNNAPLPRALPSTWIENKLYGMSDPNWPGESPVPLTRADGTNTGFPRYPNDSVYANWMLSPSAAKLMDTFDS
Briefly: Ga14-Elk/Ga14-Luc reporter in RET-3T3 fibroblasts transfected with GFRα2. Type of test: cell-based. The following applies: RET-3T3, 50 ng/ml for 6-8 hours, FIG. 10A. The method, then:
as §3, §4

On to “artemin: recombinant mature human artemin (FIG. 3A, SEQ ID NO:3) with 8-histidine tag, produced in E. coli; GDNF family neurotrophic factor”, for which, in test [1], the “survival of NG neurons” value is on record as “supported similar numbers of NG neurons” and the “survival promotion of NG neurons compared with BDNF” value is recorded as “equal or greater survival promotion than BDNF”. Moreover, the “differentiation (neurite outgrowth, neuronal morphology) of SH-SY5Y cells” value in test [2] is on record as “induced strong differentiation responses”. In test [3], the “response of NLF cells transformed with GFRα2 (luciferase reporter)” value is recorded as “not GFRα2”. Further, the “proliferation of NBL-S cells (BrdU incorporation)” value in test [4] is “stimulated proliferation of NBL-S cells”. The “survival of SCG neurons” value in test [5] (3 days after 5 days in NGF, anti-NGF antibodies) is listed as “supported the survival of SCG neurons”. Besides, the “number of SCG neurons supported compared with GDNF or neurturin” value in test [5] is reported as “fewer neurons were supported by artemin than by GDNF or neurturin”. In addition, in the test with GFRα2/RET, the “activation of RET signaling in cells expressing GFRα2/RET (luciferase reporter)” value is given as “not GFRα2/RET”.

B1: GDNF: recombinant human mature GDNF obtained from Genentech (protein, UniProt P39905 78-211, looked up)
Glial cell line-derived …: SPDKQMAVLPRRERNRQAAAANPENSRGKGRRGQRGKNRGCVLTAIHLNVTDLGLGYETKEELIFRYCSGSCDAAETTYDKILKNLSRNRRLVSDKVGQACCRPIAFDDDLSFLDDNLVYHILRKHSAKRCGCI
As for B1, in test [1], the “survival of NG neurons” value was “supported similar numbers of NG neurons” and the “survival promotion of NG neurons compared with BDNF” value is “equal or greater survival promotion than BDNF”. Also, the “proliferation of NBL-S cells (BrdU incorporation)” value in test [4] is recorded as “stimulated proliferation of NBL-S cells”. In the test with GFRα2/RET, the “activation of RET signaling in cells expressing GFRα2/RET (luciferase reporter)” value is given as “activated RET signaling”.

The record behind these values is patent US20020002269A1, “ARTEMIN, A NEUROTROPHIC FACTOR” (priority 1998, published 2002).
